Read-outs that look alike come from different tables or passages of the source.
What was measured:
[1] = test system: ER+, estrogen-dependent human breast cancer MCF-7 cell line; assay: Cell growth assay (WST-1 assay), MCF-7; assay type: cell-based; settings: for MCF-7 cell growth inhibition (in words): MCF-7, WST-1
Protocol: Results are the mean value of triplicate samples. […] Cell viability was finally determined by adding WST-1 reagent and measuring the optical absorbance at […] and 630 nm as described in “Materials and methods”. […] The IC50 for each cell line was calculated using graph pad prism. Data are expressed as mean (SEM) of triplicate samples. […] The IC50 for each cell line was calculated using graph pad prism. Data are expressed as mean (SEM) of triplicate sample. ER-Positive (MCF-7) human breast carcinoma cell line was used in this study. The human breast cell lines MCF-7 (HTB-22) were provided by the tissue culture core facility at Lombardi Comprehensive Cancer Center, Georgetown University Medical Center. […] Robert Clarke from the Georgetown University Medical Center. […] The effect of cis-4 and trans-4 or resveratrol on cell growth was determined by WST-1 assay. Briefly, cells were seeded into a 96-well plate at 3,500 cells per well in DMEM containing 10% FBS. After overnight incubation, cells were treated with the compounds (1-100 μM) for 48 h and 72 h at 37° C. Control cells were treated with an equal amount of DMSO. After the indicated incubation time, cell viability was measured by WST-1 assay according to the manufacturer's instructions (Roche). […] The water soluble tetrazolium salt of WST-1 is converted into orange formazan by dehydrogenase in the mitochondria of living cells. The formazan absorbance, which correlates to the number of living cells, was recorded at wavelengths of 450 nm and 630 nm using a microplate reader (Ultramark, Microplate Imaging System, Bio-Rad). The GI50 was calculated from the graph of the log of compound concentration versus the fraction of the surviving cells.

[2] = test system: MCF-7 cells; assay: Combination with flavopiridol, WST-1 cell viability; assay type: cell-based, human; settings: for Sensitization to flavopiridol (in words): MCF-7; for GI50: Homo sapiens, MCF7
Protocol: A Wst-1 assay was performed to measure the cell viability as mentioned in the methods. GI50 are the average of triplicate samples and the experiment was repeated thrice with identical results. The effect of cis-4 and trans-4 or resveratrol on cell growth was determined by WST-1 assay. Briefly, cells were seeded into a 96-well plate at 3,500 cells per well in DMEM containing 10% FBS. After overnight incubation, cells were treated with the compounds (1-100 μM) for 48 h and 72 h at 37° C. Control cells were treated with an equal amount of DMSO. After the indicated incubation time, cell viability was measured by WST-1 assay according to the manufacturer's instructions (Roche). […] The water soluble tetrazolium salt of WST-1 is converted into orange formazan by dehydrogenase in the mitochondria of living cells. The formazan absorbance, which correlates to the number of living cells, was recorded at wavelengths of 450 nm and 630 nm using a microplate reader (Ultramark, Microplate Imaging System, Bio-Rad). The GI50 was calculated from the graph of the log of compound concentration versus the fraction of the surviving cells.

[3] = test system: cdk4, cdk2, cyclin E, cyclin D1 and pRb in MCF-7 cells; assay: Western blot of G1 cell cycle proteins; assay type: cell-based, human; settings: MCF-7, 24 h and 48 h, immunoblot
Protocol: MCF-7 cells were treated with the indicated concentrations of compound 2 for 24 hours and 48 hours and cell lysates were analyzed by immunoblotting. Protein expression of positive regulators such as cyclin D1, Cdk4, cyclinE, Cdk2 and phospho-Rb were detected by their specific antibodies. Human β-actin was analyzed as a control of gel loading. Twenty-micrograms of lysate was used for each experimental condition.
Western blotting was performed as previously published (J Biol Chem 2004, 279, 38903-38911). In brief, cell pellets were collected at the indicated times after treatment with compounds, suspended in 100 μl, of lysis buffer (50 mM Tris-HCl, 150 mM NaCl, 1 mM EGTA, 1 mM EDTA, 20 mM NaF, […], 0.5% NP-40, 1% Triton X-100, 1 mM PMSF, 5 μg/ml aprotinin, 5 μg/ml leupeptin), vortexed twice and incubated in an ice bath for 30 min Lysates were cleared by centrifugation at 12000 rpm for 15 min at 4° C. and protein was estimated by detergent compatible BCA protein assay kit (Pierce). Equivalent amounts of total proteins were resolved by SDS-PAGE (10%) and transferred to PVDF membranes. Membranes were blocked by 5% non-fat powdered milk in TBST overnight. […]

[4] = test system: CL 10.3 cells (MCF-7 MDR, over-expresses the MDR gene); assay: Cell growth assay (WST-1 assay), multidrug resistant CL 10.3; assay type: cell-based, human; settings: for GI50: CL 10.3 Breast (MDR), 72 h, read-out: Cell Survival (WST-1 assay, GI50, 72 h) CL 10.3; for Activity in multidrug resistant cells (in words): CL 10.3 compared with MCF-7; for MDR GI50/non-MDR GI50: CL 10.3 versus MCF-7, 72 h; for P-glycoprotein substrate (in words): inferred from activity in MDR cell line CL 10.3
Protocol: IC50 value (the concentration yielding 50% growth inhibition) was extrapolated from the graph of the log of compound concentration versus the fraction of surviving cells. The 1050 for each cell line was calculated using graph pad prism. Data are expressed as mean (SEM) of triplicate sample. Results are mean value of triplicate samples.
ER-Positive (MCF-7) human breast carcinoma cell line was used in this study. The human breast cell lines MCF-7 (HTB-22) were provided by the tissue culture core facility at Lombardi Comprehensive Cancer Center, Georgetown University Medical Center. MCF-7^MDR (CL 10.3) cells were a gift from Dr. Robert Clarke from the Georgetown University Medical Center. MCF-7, and CL 10.3 cells were maintained in DMEM (Biofluids, Frederick, Md.) supplemented 10% heat inactivated fetal bovine serum (FBS), 2 mM L-glutamine, and 50 μg/mL each of antibiotics, namely penicillin, streptomycin, and neomycin at 37° C. in a humidified incubator containing 5% CO2.
The effect of cis-4 and trans-4 or resveratrol on cell growth was determined by WST-1 assay. Briefly, cells were seeded into a 96-well plate at 3,500 cells per well in DMEM containing 10% FBS. After overnight incubation, cells were treated with the compounds (1-100 μM) for 48 h and 72 h at 37° C. Control cells were treated with an equal amount of DMSO. After the indicated incubation time, cell viability was measured by WST-1 assay according to the manufacturer's instructions (Roche). Briefly, 20 μL of WST-1 solution was added in each well and incubated for 2-4 hours. The water soluble tetrazolium salt of WST-1 is converted into orange formazan by dehydrogenase in the mitochondria of living cells. The formazan absorbance, which correlates to the number of living cells, was recorded at wavelengths of 450 nm and 630 nm using a microplate reader (Ultramark, Microplate Imaging System, Bio-Rad). The GI50 was calculated from the graph of the log of compound concentration versus the fraction of the surviving cells.

[5] = Stability compared with resveratrol; assay type: physicochemical
[6] = test system: E2-mediated MCF-7 cell growth; assay: DNA content in estrogen mediated MCF-7 cell growth; assay type: cell-based, human; settings: E2 10^−9M constant
Protocol: After 5 days incubation, the DNA content of the treated cells was measured using a DNA fluorescence kit (Bio Rad #170-2480). Results are shown as the mean of triplicate samples±SD. The experiment was repeated twice with identical results. […] Cells were then seeded in 24 well plates at 10000 cells per well in 1 ml of estrogen depleted media. […] Cells were incubated at 37° C. for an additional 4 days. Media were removed and cells were frozen at −78° C. overnight and the DNA content in each well was measured according to the manufacturer's protocol (DNA Quantification Kit, Bi0-Rad). Results are represented as mean of triplicate sample and repeated the experiment with identical results.

[7] = test system: MCF-7 cells; assay: Cell cycle analysis by flow cytometry (propidium iodide); assay type: cell-based, human; settings: MCF-7, 30 μM, 16, 24, 48 h
Protocol: FIGS. 10A and 10B show the effect of compounds on cell cycle distribution in MCF-7 breast cancer cell lines. A. […] B. Percentage of DNA distribution of trans-4 in G1 phase was presented in a bar graph. Results are represented as a mean of triplicate samples. The experiment was repeated thrice with identical results. The effect of cis-4, trans-4 or resveratrol on cell cycle progression was analyzed by flow cytometry. Cells were seeded in 6-well plates and treated with 30 μM of compound 1 or 2 at different time intervals (16, 24, 48 h). Cells were trypsinized, centrifuged at 2000 rpm and cell pellets were collected. Pellets were washed with 1×PBS, permeabilized with 70% (v/v) ethanol, resuspended in 1 ml of PBS containing 1 mg/ml RNase and […] propidium iodide, incubated in the dark for 30 min at room temperature, and analysed by a FACSort Flow Cytometer (Becton Dickinson, San jose, CA). The cell cycle distribution was evaluated on DNA plots using the Modfit software (Verity softwarehouse, Topsham, Me.).

[8] = test system: MCF-7 cells; settings: MCF-7, 300 μM, Clin Cancer Res 2002; cited from earlier work
[9] = MCF-7, 48 h, read-out: Cell Survival (WST-1 assay, GI50) 48 hours
[10] = MCF-7, 72 h, read-out: Cell Survival (WST-1 assay, GI50) 72 hours

COc1ccc(/C=C/c2cc(OC)c(OC)c(OC)c2)cc1B(O)O [trans-4, 2-Methoxy-5-[(E)-2-(3,4,5-trimethoxyphenyl)vinyl]boronic acid]
GI50 [1, 9]: 36.6 µM
GI50 [1, 10]: 31.1 ± 0.05 µM
Activity relative to Resveratrol ([1]; breast cancer): 3 fold
Sensitization to flavopiridol (in words) [2]: modulates the flavopiridol mediated cell viability
Fold increase in growth inhibition compared with trans-4 ([2]; MCF-7, opposite administration: 100 nM flavopiridol 24 hours then trans-4): 7 fold
Fold increase of flavopiridol mediated growth inhibition compared with flavopiridol alone ([2]; MCF-7, trans-4 then flavopiridol): 16.6 fold
Expression level of G1 cell cycle proteins (in words) ([3]; listed as YK-5-104): decreases the pRb levels
Expression level of G1 cell cycle proteins (in words) ([3]; listed as compound 2): decreases the expression level of cdk4, cdk2, cyclin E, cyclin D1 and pRb
GI50 [4]: 49.09 ± 0.001 µM
Activity in multidrug resistant cells (in words) [4]: equipotent in CL 10.3 and MCF-7 cells
Activity in multidrug resistant cells (in words) ([4]; listed as Compound 2): can work on multidrug resistant cell lines
MDR GI50/non-MDR GI50 [4]: 1.57
P-glycoprotein substrate (in words) [4]: likely not a substrate for P-glycoprotein
P-glycoprotein substrate (in words) ([4]; listed as YK-5-104): not a substrate for p-glycoprotein
Stability compared with Resveratrol (in words) [5]: more stable than Resveratrol
Effect on E2-mediated MCF-7 cell growth (in words) [6]: does not have any effect on E2-induced cell growth

CC(=O)O[C@H]1C(=O)[C@@]2(C)[C@H]([C@H](OC(=O)c3ccccc3)[C@]3(O)C[C@H](OC(=O)[C@H](O)[C@@H](NC(=O)c4ccccc4)c4ccccc4)C(C)=C1C3(C)C)[C@]1(OC(C)=O)CO[C@@H]1C[C@@H]2O [Paclitaxel, reference compound]
MCF-7 cell growth inhibition (in words) [1]: strongly inhibits MCF-7 cell growth
Activity in multidrug resistant cells (in words) [4]: has no effect on CL 10.3 cells
MDR GI50/non-MDR GI50 [4]: >25,000
GI50 ([4]; Homo sapiens, MCF7): > 50 µM

Oc1ccc(C=Cc2cc(O)cc(O)c2)cc1 [Resveratrol, reference compound]
Sensitization to flavopiridol (in words) [2]: does not sensitize the MCF-7 cells incubated with flavopiridol
Effect on cell cycle distribution (in words) [7]: works at the G2/M1 phase
Effect on E2-mediated MCF-7 cell growth (in words) [6]: antagonizes E2-mediated MCF-7 cell growth
Cell cycle arrest by resveratrol in previous studies (in words) [8]: S-phase cell cycle arrest

CN1CC[C@H](c2c(O)cc(O)c3c(=O)cc(-c4ccccc4Cl)oc23)[C@H](O)C1 [flavopiridol, reference compound]
GI50 ([2]; MCF-7, 10 μM trans-4 for 24 hours then flavopiridol 48 hours, read-out: GI50, combination of trans-4 with flavopiridol): 0.018 µM
GI50 ([2]; MCF-7, flavopiridol alone, 48 h, read-out: GI50, flavopiridol only): 0.3 µM

[(Z)-2-(3,5-dimethoxyphenyl)vinyl]phenylboronic Acid [cis-4]
GI50 [1, 9]: > 100 µM
GI50 [1, 10]: > 100 µM
MCF-7 cell growth inhibition (in words) [1]: does not show any growth inhibition at 100 μM

From patent publication US20120149663A1, “BORONIC ACID COMPOSITIONS AND METHODS RELATED TO CANCER” (GEORGETOWN UNIVERSITY, priority 2009, published 2012)
